# Key:
# [1] = tested on: maternal sera (antibodies); assay: ELISA peptide-binding of maternal sera (Example 6); parameters: species or system human; conditions: for Number of Non-Transmitters which bound to peptide / Percent of Non-Transmitters which bound to peptide: N = 12; for Number of Transmitters which bound to peptide / Percent of Transmitters which bound to peptide: N = 4
# Description: A total of 86 maternal sera samples obtained from patients of the Hospital of the University of Pennsylvania during the third trimester of pregnancy were used in this study 58 (67%) were non-transmitters and 28 (33%) were transmitters. This is approximately consistent with the national average (i.e. a rate of transmission between 25-30%). Transmission status was based upon serological or molecular diagnosis of children (at an age of greater than 15 months) born to these mothers. Because of the constraints on the volume of serum available for many of these samples, not all sera were analyzed with all the peptides. However, each sera sample was run with at least 40 peptides.
# These peptides are of an average length of 16 amino acids and covered the entire external as well as the transmembrane glycoprotein of HIV-1. Peptide binding was analyzed by ELISA essentially as described in Example 3.
# The results of one study, using some of the peptides identified above among others, is provided in Table 12, which illustrates the number and percent of non-transmitters which bound to the tested peptide. The percentage designation refers to the percentage of sera samples which bound to a particular peptide. A value of greater than 0% means that at least one of the samples bound to the particular peptides.
# [2] = tested on: maternal HIV+ sera (antibodies); assay: RIA / ELISA binding of maternal HIV+ sera to gp120 and gp41 peptides (Example 3); parameters: species or system human
# Outline: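 Peptides were coated at 10 μg/ml in carbonate buffer pH 9.6 and blocked with 1% BSA. Sera at 1:50 and 1:500 were incubated overnight at 4°C and detected with ¹²⁵I anti-human IgG (RIA) or HRP/TMB at OD450 (ELISA). Specific binding was taken as peptide minus no-peptide wells, scored as a ratio to normal human serum.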
substance,measurement,setting,value
"A604 (IIIB): Peptide A604 (IIIB), Sequence ID No. 193 (CTTAVPWNASWSNKS)",Number of Non-Transmitters which bound to peptide,[1],2
same,Percent of Non-Transmitters which bound to peptide,[1],16.7%
same,Number of Transmitters which bound to peptide,[1],0
same,Percent of Transmitters which bound to peptide,[1],0%
"A620: gp41 peptide, amino acids 615-627, HIV strain IIIB, SEQ ID NO: 172 (SNKSLEQIWNNMT) [Peptide A620]",Number of Non-Transmitters which bound to peptide,[1],1
same,Percent of Non-Transmitters which bound to peptide,[1],8.3%
same,Number of Transmitters which bound to peptide,[1],0
same,Percent of Transmitters which bound to peptide,[1],0%
"A733: gp41 peptide, amino acids 728-745, HIV strain IIIB, SEQ ID NO: 174 (DRPEGIEEEGGERDRDRS) [Peptide A733]",Number of Non-Transmitters which bound to peptide,[1],1
same,Percent of Non-Transmitters which bound to peptide,[1],8.3%
same,Number of Transmitters which bound to peptide,[1],0
same,Percent of Transmitters which bound to peptide,[1],0%
"A524: gp41 peptide, amino acids 523-530, HIV strain MN, SEQ ID NO: 163 (FLGFLGAAGST) [Peptide A524]",Number of Non-Transmitters which bound to peptide,[1],0
same,Percent of Non-Transmitters which bound to peptide,[1],0%
same,Number of Transmitters which bound to peptide,[1],0
same,Percent of Transmitters which bound to peptide,[1],0%
"RG-2: gp41 peptide, amino acids 678-697, HIV strain IIIB, SEQ ID NO: 178 (WLWYIKLFIMIVGGLVGLRI)",Number of Non-Transmitters which bound to peptide,[1],0
same,Percent of Non-Transmitters which bound to peptide,[1],0%
same,Number of Transmitters which bound to peptide,[1],0
same,Percent of Transmitters which bound to peptide,[1],0%
VVQREKRAVGIG [Peptide 510],Number of Non-Transmitters which bound to peptide,[1],4
same,Number of Transmitters which bound to peptide,[1],0
same,Percent of Transmitters which bound to peptide,[1],0%
"T19V: Peptide T19V, Sequence ID No. 195; described in the January 1991 Catalog (TGPCTNVSTVQCTHGIRPV)",Number of Non-Transmitters which bound to peptide,[1],3
same,Percent of Non-Transmitters which bound to peptide,[1],25%
same,Number of Transmitters which bound to peptide,[1],0
same,Percent of Transmitters which bound to peptide,[1],0%
"BS-1: gp120 peptide, amino acids 319-329, SEQ ID NO:114 (TIGKIGNMRQA)",Number of Non-Transmitters which bound to peptide,[1],0
same,Percent of Non-Transmitters which bound to peptide,[1],0%
same,Number of Transmitters which bound to peptide,[1],0
same,Percent of Transmitters which bound to peptide,[1],0%
"41-11: gp41 peptide, amino acids 541-564, HIV strain MN, SEQ ID NO: 157 (QARQLLSGIVQQQNNLLRAIEAQQ) [Peptide 41-11]",Number of Non-Transmitters which bound to peptide,[1],0
same,Percent of Non-Transmitters which bound to peptide,[1],0%
same,Number of Transmitters which bound to peptide,[1],0
same,Percent of Transmitters which bound to peptide,[1],0%
"S19C: Peptide S19C, Sequence ID No. 196; described in the January 1991 Catalog (STQLLLNGSLAEEEVVIR)",Number of Non-Transmitters which bound to peptide,[1],0
same,Percent of Non-Transmitters which bound to peptide,[1],0%
same,Number of Transmitters which bound to peptide,[1],0
same,Percent of Transmitters which bound to peptide,[1],0%
"RG-1: gp41 peptide, amino acids 510-516, HIV strain IIIB, SEQ ID NO: 177 (KRAVGIG)",Number of Non-Transmitters which bound to peptide,[1],3
same,Percent of Non-Transmitters which bound to peptide,[1],25%
same,Number of Transmitters which bound to peptide,[1],1
same,Percent of Transmitters which bound to peptide,[1],25%
"105: gp120 peptide, amino acids 286-300, SEQ ID NO:112 (VQLNTSVEINCTRPN) [Peptide 105]",Number of Non-Transmitters which bound to peptide,[1],0
same,Percent of Non-Transmitters which bound to peptide,[1],0%
same,Number of Transmitters which bound to peptide,[1],0
same,Percent of Transmitters which bound to peptide,[1],0%
"C21E: gp120 peptide, amino acids 252-272, HIV strain MN, SEQ ID NO: 147 (CTHGIRPVVSTQLLLNGSLAE) [Peptide C21E]",Number of Non-Transmitters which bound to peptide,[1],0
same,Percent of Non-Transmitters which bound to peptide,[1],0%
same,Number of Transmitters which bound to peptide,[1],0
same,Percent of Transmitters which bound to peptide,[1],0%
CTRPNNNTRKSIRIQ [Peptide 106],"Percentage of sera samples demonstrating binding to peptide, non-transmitter","[2]; Non-transmitter group, n = 13",23.0%
same,Binding of maternal HIV+ serum to peptide (sera/NHS ratio),"[2]; Serum No. 1, Non-Transmission Group","- (specific OD450 or cpm of sera sample binding to peptide divided by the specific OD450 or cpm of NHS sample binding to peptide, which value is less than 2)"
same,Binding of maternal HIV+ serum to peptide (sera/NHS ratio),"[2]; Serum No. 2, Non-Transmission Group","- (specific OD450 or cpm of sera sample binding to peptide divided by the specific OD450 or cpm of NHS sample binding to peptide, which value is less than 2)"
same,Binding of maternal HIV+ serum to peptide (sera/NHS ratio),"[2]; Serum No. 3, Non-Transmission Group","- (specific OD450 or cpm of sera sample binding to peptide divided by the specific OD450 or cpm of NHS sample binding to peptide, which value is less than 2)"
same,Binding of maternal HIV+ serum to peptide (sera/NHS ratio),"[2]; Serum No. 4, Transmission Group","- (specific OD450 or cpm of sera sample binding to peptide divided by the specific OD450 or cpm of NHS sample binding to peptide, which value is less than 2)"
same,Binding of maternal HIV+ serum to peptide (sera/NHS ratio),"[2]; Serum No. 5, Transmission Group","- (specific OD450 or cpm of sera sample binding to peptide divided by the specific OD450 or cpm of NHS sample binding to peptide, which value is less than 2)"
same,Binding of maternal HIV+ serum to peptide (sera/NHS ratio),"[2]; Serum No. 6, Non-Transmission Group","- (specific OD450 or cpm of sera sample binding to peptide divided by the specific OD450 or cpm of NHS sample binding to peptide, which value is less than 2)"
same,Binding of maternal HIV+ serum to peptide (sera/NHS ratio),"[2]; Serum No. 7, Non-Transmission Group","- (specific OD450 or cpm of sera sample binding to peptide divided by the specific OD450 or cpm of NHS sample binding to peptide, which value is less than 2)"
same,Binding of maternal HIV+ serum to peptide (sera/NHS ratio),"[2]; Serum No. 8, Non-Transmission Group","- (specific OD450 or cpm of sera sample binding to peptide divided by the specific OD450 or cpm of NHS sample binding to peptide, which value is less than 2)"
same,Binding of maternal HIV+ serum to peptide (sera/NHS ratio),"[2]; Serum No. 9, Non-Transmission Group","- (specific OD450 or cpm of sera sample binding to peptide divided by the specific OD450 or cpm of NHS sample binding to peptide, which value is less than 2)"
same,Binding of maternal HIV+ serum to peptide (sera/NHS ratio),"[2]; Serum No. 10, Transmission Group","- (specific OD450 or cpm of sera sample binding to peptide divided by the specific OD450 or cpm of NHS sample binding to peptide, which value is less than 2)"
same,Binding of maternal HIV+ serum to peptide (sera/NHS ratio),"[2]; Serum No. 11, Non-Transmission Group","- (specific OD450 or cpm of sera sample binding to peptide divided by the specific OD450 or cpm of NHS sample binding to peptide, which value is less than 2)"
same,Binding of maternal HIV+ serum to peptide (sera/NHS ratio),"[2]; Serum No. 12, Non-Transmission Group","- (specific OD450 or cpm of sera sample binding to peptide divided by the specific OD450 or cpm of NHS sample binding to peptide, which value is less than 2)"
same,Binding of maternal HIV+ serum to peptide (sera/NHS ratio),"[2]; Serum No. 13, Transmission Group",++ (which value is greater than 3)
same,Binding of maternal HIV+ serum to peptide (sera/NHS ratio),"[2]; Serum No. 14, Transmission Group",++ (which value is greater than 3)
same,Binding of maternal HIV+ serum to peptide (sera/NHS ratio),"[2]; Serum No. 15, Transmission Group",++ (which value is greater than 3)
same,Binding of maternal HIV+ serum to peptide (sera/NHS ratio),"[2]; Serum No. 16, Non-Transmission Group",+ (which value is between 2 to 3)
same,Binding of maternal HIV+ serum to peptide (sera/NHS ratio),"[2]; Serum No. 17, Non-Transmission Group",++ (which value is greater than 3)
same,Binding of maternal HIV+ serum to peptide (sera/NHS ratio),"[2]; Serum No. 18, Non-Transmission Group","- (specific OD450 or cpm of sera sample binding to peptide divided by the specific OD450 or cpm of NHS sample binding to peptide, which value is less than 2)"
same,Binding of maternal HIV+ serum to peptide (sera/NHS ratio),"[2]; Serum No. 19, Transmission Group","- (specific OD450 or cpm of sera sample binding to peptide divided by the specific OD450 or cpm of NHS sample binding to peptide, which value is less than 2)"
same,Binding of maternal HIV+ serum to peptide (sera/NHS ratio),"[2]; Serum No. 20, Non-Transmission Group",+ (which value is between 2 to 3)
same,"Percentage of sera samples demonstrating binding to peptide, transmitter","[2]; Transmitter / transmission group, n = 7",42.9%
same,Percent of the maternal serum samples that bound to the peptide,[2]; all 20 samples,30%

# Source: patent publication US5556744A, “Methods and compositions for diagnosing and treating certain HIV infected patients” (The Trustees of the University of Pennsylvania, priority 1994, dated 1996)
